Experimental data: ChEMBL document CHEMBL1140457, “(1R,2S)-4-(2-cyano-cyclohexyl-oxy)-2-trifluoromethyl-benzonitrile, a potent androgen receptor antagonist for stimulating hair growth and reducing sebum production” (Bioorg Med Chem Lett, 2007)
Active and inactive are the calls of the source. The rule behind the calls is not given here.

Tests used:
[1] = biological target: T1, Androgen receptor (Homo sapiens, UniProt P10275); assay: Displacement of [3H]DHT from androgen receptor expressed in Sf9 cells
T1 sequence (P10275 whole entry): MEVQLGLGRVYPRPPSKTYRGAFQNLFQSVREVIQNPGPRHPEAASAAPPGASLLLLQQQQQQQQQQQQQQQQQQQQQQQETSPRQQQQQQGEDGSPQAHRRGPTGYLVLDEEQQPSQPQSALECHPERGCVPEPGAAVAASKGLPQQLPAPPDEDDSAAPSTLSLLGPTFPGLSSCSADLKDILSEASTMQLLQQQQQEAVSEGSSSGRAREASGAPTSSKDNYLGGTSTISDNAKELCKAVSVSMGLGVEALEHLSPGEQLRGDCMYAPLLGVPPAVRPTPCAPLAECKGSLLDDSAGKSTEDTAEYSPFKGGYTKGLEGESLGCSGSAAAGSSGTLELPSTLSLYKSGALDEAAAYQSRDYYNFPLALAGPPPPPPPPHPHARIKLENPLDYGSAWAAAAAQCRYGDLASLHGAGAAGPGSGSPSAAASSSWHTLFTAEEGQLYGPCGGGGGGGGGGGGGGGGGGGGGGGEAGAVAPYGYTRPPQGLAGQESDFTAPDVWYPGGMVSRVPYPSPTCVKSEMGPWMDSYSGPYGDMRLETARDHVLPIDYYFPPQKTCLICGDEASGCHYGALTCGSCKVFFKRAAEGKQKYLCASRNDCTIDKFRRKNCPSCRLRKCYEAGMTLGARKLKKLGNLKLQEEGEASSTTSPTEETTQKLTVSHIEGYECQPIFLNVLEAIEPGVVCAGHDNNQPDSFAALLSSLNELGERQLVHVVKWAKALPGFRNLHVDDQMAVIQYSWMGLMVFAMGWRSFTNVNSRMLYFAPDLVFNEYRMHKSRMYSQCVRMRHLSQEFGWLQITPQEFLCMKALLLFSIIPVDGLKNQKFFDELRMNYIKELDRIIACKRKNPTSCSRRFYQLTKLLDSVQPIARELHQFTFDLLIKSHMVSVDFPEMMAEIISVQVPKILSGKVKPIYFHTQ

[2] = biological target: T1, Androgen receptor; assay: Antagonist activity at androgen receptor expressed in MDA-MB-453 cells assessed as inhibition of dihydrotestosterone-induced response in reporter gene assay; assay type: functional, cell-based
[3] = Plasma clearance in Sprague-Dawley rat at 1 mg/kg, iv; assay type: ADME, organism-based; parameters: dose 1 mg/kg, route intravenous
[4] = test system: Syrian golden hamster; assay: Reduction of sebum production in topically dosed Syrian hamster ear model administered twice daily for 2 weeks; assay type: functional, Mesocricetus auratus
[5] = test system: Syrian golden hamster; assay: Reduction of sebaceous gland size in topically dosed Syrian hamster ear model administered twice daily for 2 weeks; assay type: functional, organism-based; conditions: Mesocricetus auratus
[6] = Metabolic stability in human hepatocytes assessed as hepatic extraction ratio at 1 uM; assay type: ADME, cell-based, Hepatocyte; conditions: read-out: Stability
[7] = Half life in Sprague-Dawley rat at 1 mg/kg, iv; assay type: ADME, organism-based; parameters: dose 1 mg/kg, route intravenous; conditions: in vivo
[8] = Metabolic stability in Beagle dog hepatocytes assessed as hepatic extraction ratio at 1 uM; assay type: ADME, cell-based, Canis lupus familiaris, Hepatocyte; conditions: read-out: Stability
[9] = Volume of distribution at steady state in Sprague-Dawley rat at 1 mg/kg, iv; assay type: ADME, organism-based; parameters: dose 1 mg/kg, route intravenous; conditions: in vivo, read-out: Vdss
[10] = Metabolic stability in Sprague-Dawley rat hepatocytes assessed as hepatic extraction ratio at 1 uM; assay type: ADME, cell-based, Hepatocyte; conditions: read-out: Stability
[11] = test system: Mus musculus; assay: Stimulation of hair growth in topically dosed C3H/HeN mouse model administered twice daily for 4 weeks; assay type: functional, organism-based
[12] = test system: Syrian golden hamster; assay: Reduction of sebum production in topically dosed Syrian hamster ear model administered at 0.5% concentration twice daily for 2 weeks; assay type: functional, Mesocricetus auratus; parameters: scale not given: the % may be the effect or the level left

SMILES: N#Cc1ccc(O[C@H]2CCCC[C@@H]2C#N)cc1C(F)(F)F
- IC50 [1]: 43 nM
- IC50 [2]: 196 nM

SMILES: N#Cc1ccc(O[C@@H]2CCCC[C@H]2C#N)cc1C(F)(F)F
- IC50 [1]: 60 nM
- clearance [3]: 71 mL/min/kg
- IC50 [2]: 12 nM
- ED50 [4]: 0.1%
- Activity [5]: Active
- hepatic extraction ratio at 1 µM [6]: 0.57
- half-life [7]: 1.6 h
- hepatic extraction ratio at 1 µM [8]: 0.92
- Vd [9]: 6.5 L/kg
- hepatic extraction ratio at 1 µM [10]: 0.88
- Activity [11]: Dose-dependent effect

SMILES: CC1(C)C(=O)N(c2ccc(C#N)c(C(F)(F)F)c2)C(=O)N1CCCCO [RU-58841]
- Activity [12]: 91%

SMILES: N#Cc1ccc(OC2CCCCC2C#N)cc1C(F)(F)F (racemic)
- IC50 [1]: 58 nM
- IC50 [2]: 13 nM
